Structures can show the parent of a compound that is named as a salt.
Columns and labels:
[1] = biological target: T1, Lp-PLA2 in human plasma (Homo sapiens, UniProt Q13093); assay: Lp-PLA2 human plasma assay (Thio-PAF assay); assay type: biochemical; settings: pooled human plasma, 2-thio-PAF substrate; read-out: pIC50 in the thio-PAF assay (converted)
T1 construct: This assay may detect the activity of Lp-PLA2 in human plasma; from tissue; host or cells: pooled human plasma
T1 sequence (Q13093 22-441): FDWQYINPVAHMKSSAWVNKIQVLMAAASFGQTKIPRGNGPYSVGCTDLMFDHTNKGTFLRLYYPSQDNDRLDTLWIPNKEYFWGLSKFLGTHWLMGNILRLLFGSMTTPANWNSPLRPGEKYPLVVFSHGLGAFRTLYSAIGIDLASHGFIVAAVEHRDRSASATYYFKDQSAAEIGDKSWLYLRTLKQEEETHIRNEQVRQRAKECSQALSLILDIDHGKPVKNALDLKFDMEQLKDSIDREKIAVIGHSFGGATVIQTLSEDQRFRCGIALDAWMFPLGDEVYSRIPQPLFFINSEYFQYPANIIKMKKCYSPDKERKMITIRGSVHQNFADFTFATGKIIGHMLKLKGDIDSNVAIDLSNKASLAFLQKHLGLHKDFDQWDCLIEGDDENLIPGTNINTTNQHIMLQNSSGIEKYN
Source text: (3) Lipoprotein-Associated Phospholipase A2 (Lp-PLA2) Human Plasma Assay (Also Referred to as “Thio-PAF Assay”)
The human plasma assay utilizes a thioester analog of PAF (phosphatidylcholine), where hydrolysis yields to the formation of a phospholipid containing a free thiol group. The amount of thiol is quantitated continuously by reacting with CPM (7-diethylamino-3-(4′-maleimidylphenyl)-4-methylcoumarin), a maleimide which increases in fluoresence after Michael addition of thiols. This assay may detect the activity of Lp-PLA2 in human plasma, as determined by specific inhibition by Lp-PLA2 inhibitors.
The thio-PAF assay was run as a quenched 15 μL assay. Compounds source plate was prepared by making 1:3 (by volume) serial dilution of the compounds into pure DMSO on 384-well microplate. 0.01 μL of compounds on compound source plate were transferred to 384 well Greiner 784076 (black) low-volume plates by ECHO liquid dispenser. 8 μL pooled human plasma, which was previously aliquoted and frozen, was added. Plates were centrifuged for 10 sec at 500 rpm. After 30 minutes preincubation, 2 μL of substrate solution comprising 2.5 mM 2-thio-PAF [from ethanol stock], 32 μM CPM [from a DMSO stock] and 3.2 mM NEM (N-ethylmaleimide) [made fresh daily in DMSO] in assay buffer of 50 mM HEPES, pH 7.4, 150 mM NaCl, 1 mM CHAPS was added to 384 well Greiner 784076 (black) low-volume plates by BRAVO liquid handling station. After 2 mins, reaction was quenched with 5 μL of 5% aqueous trifluoroacetic acid (TFA). Plates were covered to protect from light and incubated for 40 min at room temperature. Plates were read at ex: 380/em: 485 using-Envision microplate reader. pIC50 data, curve and QC analysis was conducted by using XLFit module in Excel.

[2] = biological target: T2, recombinant human Lp-PLA2 (Homo sapiens, UniProt Q13093); assay: Recombinant human Lp-PLA2 assay (rhLp-PLA2, PED6 assay); assay type: biochemical; settings: recombinant human Lp-PLA2, PED6 substrate; upper limit for pIC50 in this assay is 9.3
T2 sequence (Q13093 22-441): T1 sequence (Q13093 22-441)
Source text: (1) Recombinant Human Lp-PLA2 Assay (rhLp-PLA2) (Also Referred to as “PED6” Assay)
N-((6-(2,4-dinitrophenyl)amino)-hexanoyl)-2-(4,4-difluoro-5,7-dimethyl-4-bora-3a,4a-diaza-s-indacene-3-pentanoyl)-1-hexadecanoyl-sn-glycero-3-phosphoethanolamine, triethylammonium salt (PED6) is a commercially available fluorescently-labeled phospholipid, which is commercially available from Invitrogene and Molecular Probes. There is a quenching […] and a Bodipy fluorescein (FL) group in the sn2 position. Upon cleavage with Lp-PLA2, the Bodipy FL group is liberated and then may result in an increase in fluorescence. Inhibitors of Lp-PLA2 therefore prevent this cleavage and no fluorescent increase is observed.
The PED6 assay was run as an unquenched 10 μL assay. The source plate containing the compounds to be tested was prepared by making 1:3 (by volume) serial dilution of the compounds within DMSO on 384-well microplate. Then, 0.01 μL of the compounds on compound source plate were transferred into 384 well Greiner 784076 (black) plates using ECHO liquid dispenser. 5 µL of recombinant human Lp-PLA2 enzyme (4 nM (or 110 pM) rhLp-PLA2 in assay buffer of 50 mM HEPES, pH 7.4, 150 mM NaCl, 1 mM CHAPS) was added to each well of the plate. Plates were centrifuged for 10 sec at 500 rpm. After 30 minutes preincubation, 5 µL of substrate (4 μM (or 5 μM) PED6 [from 5 mM DMSO stock] in assay buffer of 50 mM HEPES, pH 7.4, 150 mM NaCl, 1 mM CHAPS) was added to 384 well Greiner 784076 (black) plates. Plates were centrifuged for 10 sec at 500 rpm. The plate was covered to protect it from light and incubated for 20 min at room temperature. The plates were read for fluorescence intensity at ex: 480/em: 540 using ViewLux microplate imager for Envision spectrofluroimeters pIC50 data, curve and QC analysis was conducted by using XL fit module in Excel.
The compounds described below were tested generally according to the PED6 assay described above.

Row | SMILES | IC50 [1] [nM] | IC50 [2] [nM]
1 | CN1CCn2c1cc(OCc1ccc(Oc3cncc(C#N)c3)c(C#N)c1)nc2=O [Example 138, 5-(2-cyano-4-(((l-methyl-5-oxo-1,2,3,5-tetrahydroimidazo[1,2-c]pyrimidin-7-yl)oxy)methyl)phenoxy)nicotinonitrile] | ≤ 1000 | 
2 | CN1CCn2c1cc(OCc1ccc(Oc3ccc(C#N)nc3)c(C#N)c1)nc2=O [Example 108, 5-(2-cyano-4-(((1-methyl-5-oxo-1,2,3,5-tetrahydroimidazo[1,2-c]pyrimidin-7-yl)oxy)methyl)phenoxy)picolinonitrile] | ≤ 1000 | 
3 | N#Cc1cc(COc2cc3n(c(=O)n2)CCN3)ccc1Oc1cnc(F)c(F)c1 [Example 117, 2-((5,6-difluoropyridin-3-yl)oxy)-5-(((5-oxo-1,2,3,5-tetrahydroimidazo[1,2-c]pyrimidin-7-yl)oxy)methyl)benzonitrile] |  | ≤ 10
4 | N#Cc1cc(COc2cc3n(c(=O)n2)CCN3)ccc1Oc1cccc(C(F)(F)F)c1 [Example 112, 5-(((5-oxo-1,2,3,5-tetrahydroimidazo[1,2-c]pyrimidin-7-yl)oxy)methyl)-2-(3-(trifluoromethyl)phenoxy)benzonitrile] |  | ≤ 10
5 | O=c1nc(OCc2ccc(Oc3cc(F)cc(C(F)(F)F)c3)c(F)c2)cc2n1CCN2 [Example 151, 7-((3-fluoro-4-(3-fluoro-5-(trifluoromethyl)phenoxy)benzyl)oxy)-2,3-dihydroim-idazo[1,2-c]pyrimidin-5(1H)-one] |  | ≤ 1
6 | CN1CCn2c1cc(OCc1ccc(F)c(C#N)c1)nc2=O [Example 146, 2-fluoro-5-(((l-methyl-5-oxo-1,2,3,5-tetrahydroimidazo[1,2-c]pyrimidin-7-yl)oxy)methyl)benzonitrile] | ≤ 1000 | 
7 | O=c1nc(OCc2ccc(Oc3ccc(Cl)c(Cl)c3)c(F)c2)cc2n1CCN2 [Example 98, 7-((4-(3,4-dichlorophenoxy)-3-fluorobenzyl)oxy)-2,3-dihydroimidazo[1,2-c]pyrimi-din-5(1H)-one] |  | ≤ 10
8 | CN1CCn2c1cc(OCc1ccc(Oc3cncc(C#N)c3)c(F)c1)nc2=O [Example 141, 5-(2-fluoro-4-(((1-methyl-5-oxo-1,2,3,5-tetrahydroimidazo[1,2-c]pyrimidin-7-yl)oxy)methyl)phenoxy)nicotinonitrile] | ≤ 1000 | 
9 | CN1CCn2c1cc(OCc1ccc(Oc3cncc(F)c3)c(C#N)c1)nc2=O [Example 137, 2-((5-fluoropyridin-3-yl)oxy)-5-(((1-methyl-5-oxo-1,2,3,5-tetrahydroimidazo[1,2-c]pyrimidin-7-yl)oxy)methyl)benzonitrile] | ≤ 1000 | 

Other lines, results leading:

Row | IC50 [1] [nM] | IC50 [2] [nM] | SMILES
10 | ≤ 1000 |  | CN1CCn2c1cc(OCc1cc(F)c(F)c(F)c1)nc2=O [Example E17, 1-methyl-7-((3,4,5-trifluorobenzyl)oxy)-2,3-dihydroimidazo[1,2-c]pyrimidin-5(1H)-one]
11 | ≤ 1000 |  | Cc1ccc(Oc2ccc(COc3cc4n(c(=O)n3)CCN4C)cc2C#N)cn1 [Example E56, 5-(((1-methyl-5-oxo-1,2,3,5-tetrahydroimidazo[1,2-c]pyrimidin-7-yl)oxy)methyl)-2-((6-methylpyridin-3-yl)oxy)benzonitrile, trifluoroacetic acid salt]
12 |  | ≤ 10 | CN1CCn2c1cc(OCc1ccc(Oc3cccc(C#N)c3)c(F)c1)nc2=O [Example E63, 3-(2-fluoro-4-(((1-methyl-5-oxo-1,2,3,5-tetrahydroimidazo[1,2-c]pyrimidin-7-yl)oxy)methyl)phenoxy)benzonitrile, trifluoroacetic acid salt]
13 | ≤ 1000 |  | CC(C)N1CCn2c1cc(OCc1ccc(F)c(F)c1)nc2=O [Example E47, 7-((3,4-difluorobenzyl)oxy)-1-isopropyl-2,3-dihydroimidazo[1,2-c]pyrimidin-5(1H)-one, trifluoroacetic acid salt]
14 |  | ≤ 10 | O=c1nc(OCc2cc(F)c(Oc3ccc(F)cc3)c(F)c2)cc2n1CCN2 [Example E74, 7-((3,5-difluoro-4-(4-fluorophenoxy)benzyl)oxy)-2,3-dihydroimidazo[1,2-c]pyrimidin-5(1H)-one]
15 |  | ≤ 10 | CN1CCn2c1cc(OCc1cc(F)c(Oc3ccc(F)cc3)c(F)c1)nc2=O [Example E12, 7-((3,5-difluoro-4-(4-fluorophenoxy)benzyl)oxy)-1-methyl-2,3-dihydroimidazo[1,2-c]pyrimidin-5(1H)-one]
16 |  | ≤ 10 | CN1CCn2c1cc(OCc1ccc(Oc3ccc(F)cc3)c(C#N)c1)nc2=O [Example E22, 2-(4-fluorophenoxy)-5-(((1-methyl-5-oxo-1,2,3,5-tetrahydroimidazo[1,2-c]pyrimidin-7-yl)oxy)methyl)benzonitrile]
17 |  | ≤ 10 | CN1CCn2c1cc(OCc1ccc(F)c(Oc3cccc(Cl)c3)c1)nc2=O [Example E16, 7-((3-(3-chlorophenoxy)-4-fluorobenzyl)oxy)-1-methyl-2,3-dihydroimidazo[1,2-c]pyrimidin-5(1H)-one]
18 | ≤ 1000 |  | CN1CCn2c1cc(OCc1ccc(F)c(F)c1)nc2=O [Example E7, 7-((3,4-difluorobenzyl)oxy)-1-methyl-2,3-dihydroimidazo[1,2-c]pyrimidin-5(1H)-one]
19 | ≤ 1000 |  | N#Cc1cccc(COc2cc3n(c(=O)n2)CCN3)c1 [Example E60, 3-(((5-oxo-1,2,3,5-tetrahydroimidazo[1,2-c]pyrimidin-7-yl)oxy)methyl)benzonitrile]
20 | ≤ 1000 |  | O=c1nc(OCc2ccc(F)c(F)c2)cc2n1CCN2 [Example E68, 7-((3,4-difluorobenzyl)oxy)-2,3-dihydroimidazo[1,2-c]pyrimidin-5(1H)-one]
21 | ≤ 1000 |  | CN1CCn2c1cc(OCc1ccc(Oc3cnc(C(F)(F)F)nc3)c(C#N)c1)nc2=O [Example E31, 5-(((l-methyl-5-oxo-1,2,3,5-tetrahydroimidazo[1,2-c]pyrimidin-7-yl)oxy)methyl)-2-((2-(trifluoromethyl)pyrimidin-5-yl)oxy)benzonitrile]
22 | ≤ 1000 |  | CN1CCn2c1cc(OCc1ccc(Oc3ccc(F)c(Cl)c3)c(C#N)c1)nc2=O [Example E39, 2-(3-chloro-4-fluorophenoxy)-5-(((1-methyl-5-oxo-1,2,3,5-tetrahydroimidazo[1,2-c]pyrimidin-7-yl)oxy)methyl)benzonitrile, trifluoroacetic acid salt]
23 |  | ≤ 10 | O=c1nc(OCc2ccc(Oc3cccc(C(F)(F)F)c3)c(Cl)c2)cc2n1CCN2 [Example E61, 7-((3-chloro-4-(3-(trifluoromethyl)phenoxy)benzyl)oxy)-2,3-dihydroimidazo[1,2-c]pyrimidin-5(1H)-one]
24 | ≤ 1000 |  | CN1CCn2c1cc(OCc1cccc(C#N)c1)nc2=O [Example E33, 3-(((1-methyl-5-oxo-1,2,3,5-tetrahydroimidazo[1,2-c]pyrimidin-7-yl)oxy)meth-yl)benzonitrile]
